Data from ChEMBL document CHEMBL1201862, “PubChem BioAssay data set” (2004).
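Each compound was tested at five concentrations against cells in 96-well plates for 48 hours. GI50 = concentration required for 50% inhibition of growth.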 Calls of active or inactive are those of the source. Rule as the data show it: active = GI50 up to about 1.1 µM and inactive = higher.

Legend:
Assay in all cases: inhibition of tumour cell growth, NCI panel, 48 h
[1] = system: OVCAR-3
[2] = system: CCRF-CEM
[3] = system: 786-0
[4] = system: DU-145
[5] = system: SF-295
[6] = system: SF-268
[7] = system: HCC 2998
[8] = system: K562
[9] = system: LOX IMVI
[10] = system: ACHN
[11] = system: SNB-75
[12] = system: OVCAR-5
[13] = system: MCF7
[14] = system: PC-3
[15] = system: SNB-19
[16] = system: MOLT-4
[17] = system: Hs-578T
[18] = system: M14
[19] = system: HCT-116
[20] = system: HOP-92

Compound	GI50 [1]	GI50 [2]	GI50 [3]	GI50 [4]	GI50 [5]	GI50 [6]	GI50 [7]	GI50 [8]	GI50 [9]	GI50 [10]	GI50 [11]	GI50 [12]	GI50 [13]	GI50 [14]	GI50 [15]	GI50 [16]	GI50 [17]	GI50 [18]	GI50 [19]	GI50 [20]
CC(=O)Nc1ccc(NCC(=O)Nn2cnc3ccc(S(=O)(=O)Nc4ccc(NC(C)=O)cc4)cc3c2=O)cc1	> 100 µM (inactive)	> 100 µM (inactive)	> 100 µM (inactive)	> 100 µM (inactive)	> 100 µM (inactive)	> 100 µM (inactive)	> 100 µM (inactive)	> 100 µM (inactive)	> 100 µM (inactive)	> 100 µM (inactive)	> 100 µM (inactive)	> 100 µM (inactive)	> 100 µM (inactive)	> 100 µM (inactive)	> 100 µM (inactive)	> 100 µM (inactive)	> 100 µM (inactive)	> 100 µM (inactive)	> 100 µM (inactive)	> 100 µM (inactive)
Cc1ccc(C(=O)/C=C(O)/C(O)=C/C(=O)c2ccc(C)cc2C)c(C)c1	1.76 µM (inactive)	0.175 µM (active)	2.03 µM (inactive)	2.36 µM (inactive)	1.75 µM (inactive)	1.91 µM (inactive)	1.92 µM (inactive)	2.96 µM (inactive)	2.16 µM (inactive)	1.84 µM (inactive)	1.95 µM (inactive)	2.06 µM (inactive)	2.02 µM (inactive)	2.31 µM (inactive)	2.49 µM (inactive)	1.98 µM (inactive)	2.21 µM (inactive)	1.93 µM (inactive)	2.32 µM (inactive)	2.9 µM (inactive)
COc1ccc(-n2cnc3c(NC(C)(C)C(=O)O)ncnc32)cc1	> 100 µM (inactive)	> 100 µM (inactive)	> 100 µM (inactive)	> 100 µM (inactive)	> 100 µM (inactive)	> 100 µM (inactive)	> 100 µM (inactive)	> 100 µM (inactive)	> 100 µM (inactive)	> 100 µM (inactive)	> 100 µM (inactive)	> 100 µM (inactive)	> 100 µM (inactive)	> 100 µM (inactive)	> 100 µM (inactive)	> 100 µM (inactive)	> 100 µM (inactive)	> 100 µM (inactive)	> 100 µM (inactive)	> 100 µM (inactive)
O=[N+]([O-])c1cc(-c2nc(-c3ccccc3)c(-c3ccccc3)[nH]2)c(O)c([N+](=O)[O-])c1	33 µM (inactive)	25.9 µM (inactive)	21.6 µM (inactive)	21.9 µM (inactive)	22.3 µM (inactive)	30.1 µM (inactive)	16.6 µM (inactive)	30.8 µM (inactive)	23.6 µM (inactive)	21.6 µM (inactive)	23 µM (inactive)	23.2 µM (inactive)	24.7 µM (inactive)	20.3 µM (inactive)	36.9 µM (inactive)	22.8 µM (inactive)	27.4 µM (inactive)	21.1 µM (inactive)	17.7 µM (inactive)	19.8 µM (inactive)
c1ccc(-c2cc(-c3cccs3)c(-c3cccs3)o2)cc1	61.1 µM (inactive)	> 100 µM (inactive)	> 100 µM (inactive)	> 100 µM (inactive)	> 100 µM (inactive)	> 100 µM (inactive)	> 100 µM (inactive)	> 100 µM (inactive)	> 100 µM (inactive)	> 100 µM (inactive)	> 100 µM (inactive)	> 100 µM (inactive)	32.2 µM (inactive)	> 100 µM (inactive)	> 100 µM (inactive)	> 100 µM (inactive)	> 100 µM (inactive)	> 100 µM (inactive)	50.7 µM (inactive)	> 100 µM (inactive)
C=CCN(CCNS(=O)(=O)c1ccc(C)cc1)S(=O)(=O)c1ccc(C)cc1	19 µM (inactive)	> 55 µM (inactive)	61.8 µM (inactive)	54.6 µM (inactive)	14 µM (inactive)	10.4 µM (inactive)	> 69.5 µM (inactive)	> 54.1 µM (inactive)	17.3 µM (inactive)	13.6 µM (inactive)	15.1 µM (inactive)	58.2 µM (inactive)	> 51.9 µM (inactive)	> 48 µM (inactive)	> 76.6 µM (inactive)	> 45.7 µM (inactive)	> 52.4 µM (inactive)	14 µM (inactive)	34.2 µM (inactive)	> 69.3 µM (inactive)
